Structures can show the parent of a compound that is named as a salt.
Assay: Evaluation of taste (bitter, sour, sweet) by panellists, orange juice with and without added 4-hydroxyflavanone
Assay type: in vivo
Source text: Masking the perception of sour and the bitterness in orange juice, which was obtained from premature fruits and/or HLB infected fruits with at least 5 ppm limonin
A commercial orange juice was used for the experiments, which according to an analysis contains 7.8 ppm limonin and was regularly evaluated as too bitter from the panellists. The panellists (n=6) thereby evaluate the 3 attributes “sweet”, “bitter” and “sour” on an unstructured scale of 0 (no taste) to 10 (strong taste). In one sample, the panellists received the orange juice alone, in a further sample, they received the orange juice which was supplemented with an amount of 4-hydroxyflavanone as listed in one of the tables. Thereby, the order was arbitrary and not known to the panellists before.

[1] = 10 ppm in the examined orange juice
[2] = 10 ppm racemic eriodictyol vs orange juice (7.8 ppm limonin) alone, Example 2
[3] = B (10 ppm racemic eriodictyol) vs A (orange juice 7.8 ppm limonin alone), Example 5
[4] = orange juice containing 7.8 ppm limonin + 10 ppm racemic eriodictyol, scale 0-10, n=6 panellists, Example 2
[5] = sample B: orange juice containing 7.8 ppm limonin + 10 ppm racemic eriodictyol, scale 0-10, Example 5
[6] = 30 ppm in the examined orange juice
[7] = 30 ppm racemic homoeriodictyol-sodium-salt vs orange juice (7.8 ppm limonin) alone, Example 4
[8] = 50 ppm racemic homoeriodictyol-sodium-salt vs orange juice (7.8 ppm limonin) alone, Example 3
[9] = orange juice containing 7.8 ppm limonin + 30 ppm racemic homoeriodictyol-sodium-salt, scale 0-10, n=6 panellists, Example 4
[10] = orange juice containing 7.8 ppm limonin + 50 ppm racemic homoeriodictyol-sodium-salt, scale 0-10, n=6 panellists, Example 3
[11] = 20 ppm in the examined orange juice
[12] = 20 ppm racemic naringenin vs orange juice (7.8 ppm limonin) alone, Example 1
[13] = orange juice containing 7.8 ppm limonin + 20 ppm racemic naringenin, scale 0-10, n=6 panellists, Example 1

## O=C1C[C@@H](c2ccc(O)c(O)c2)Oc2cc(O)cc(O)c21 (racemic) [racemic eriodictyol, eriodictyol]
[1]
  effect on bitter taste (in words): strong reduction
  effect on sour perception (in words): decreased
  effect on sweet impression (in words): increased
[2]
  Relative change Bitter: −32%
  Relative change Sour: −20%
  Relative change Sweet: +28%
[3]
  Relative change A/B Bitter: −21%
  Relative change A/B Sour: −12%
  Relative change A/B Sweet: +40%
[4]
  Evaluation (0-10) Bitter: 3.2
  Evaluation (0-10) Sour: 4.4
  Evaluation (0-10) Sweet: 5.1
[5]
  Evaluation (0-10) Bitter: 3.9
  Evaluation (0-10) Sour: 4.4
  Evaluation (0-10) Sweet: 4.2

## COc1cc([C@@H]2CC(=O)c3c(O)cc(O)cc3O2)ccc1O (racemic) [racemic homoeriodictyol-sodium-salt, homoeriodictyol-sodium-salt]
[6]
  effect on bitter taste (in words): clear reduction
  effect on sour impression (in words): decreases
  effect on sweet taste (in words): does not influence
[7]
  Relative change Bitter: −27%
  Relative change Sour: −12%
  Relative change Sweet: +3%
50 ppm in the examined orange juice
  effect on sour perception (in words): influenced more strongly
[8]
  Relative change Bitter: −13%
  Relative change Sour: −23%
  Relative change Sweet: +24%
[9]
  Evaluation (0-10) Bitter: 3.2
  Evaluation (0-10) Sour: 4.1
  Evaluation (0-10) Sweet: 4.8
[10]
  Evaluation (0-10) Bitter: 4.1
  Evaluation (0-10) Sour: 3.3
  Evaluation (0-10) Sweet: 4.0

## O=C1C[C@@H](c2ccc(O)cc2)Oc2cc(O)cc(O)c21 (racemic) [racemic naringenin, naringenin]
[11]
  effect on bitter taste (in words): clear reduction
  effect on sour impression (in words): decrease
  effect on sweet impression (in words): increase
[12]
  Relative change Bitter: −31%
  Relative change Sour: −25%
  Relative change Sweet: +30%
Orange juice containing 7.8 ppm limonin + 20 ppm racemic naringenin, scale 0 (no taste) to 10 (strong taste), n=6 panellists, Example 1
  Evaluation (0-10) Bitter: 3.4
[13]
  Evaluation (0-10) Sour: 3.3
  Evaluation (0-10) Sweet: 5.2

From US10765134B2, “Foodstuff containing citrus products having added 4-hydroxyflavanones” (SYMRISE AG, priority 2015, dated 2020)
